Like-named read-outs stand apart in the source and are kept apart here.
Assays:
[1] = system: harvested fruit of grape (variety: Barikan)
Procedure: The fruit of grape was maintained in an air-conditioned greenhouse (temperature: 25° C.), and measured for the mass over time. The sugar content of the fruit was measured before the application and 8 days after the application with a sugar content meter. Next, on the assumption that the change in the mass of the fruit was entirely due to the change in water content, calculated values of the amount of decrease in mass and the sugar content on the date (June 2) of the application were determined […] by using the following calculation formula. (Calculated as follows: the sugar content (%) calculated value))=the sugar content (%) before application×the mass (g) on the date of application/the mass (g) on the date of measurement))

[2] = system: fruit of grape (variety: Red Globe)
Procedure: The mass of fruit of grape (variety: Red Globe) purchased on the market was measured. Then, the prepared agents for increasing a sugar content in a fruit were applied by spraying to the fruit of grape, which was then allowed to stand in an air-conditioned greenhouse (temperature: 25° C.). With the mass of the grape on the date of application being 100 g, the mass of the grape after the application was measured over time (date of application: May 16, 2011; dates of test: May 19, May 23, May 27, May 30, and Jun. 2, 2011). Next, on the assumption that the change in mass of the fruit was entirely due to the change in water content, the calculated value of the sugar content was determined from the amount of decrease in mass and the sugar content on the date […] of the application (calculated as follows: “the sugar content (calculated value)=the sugar content (%) on the date of application×the mass (g) on the date of application/the mass (g) on the date of measurement”). In addition, as a control, the mass of untreated grape was measured in the same manner. The results are shown in Tables 7 and 8 and FIGS. 12 to 14.

[3] = system: clusters of grape (variety: Crimson); test: Estimated transpiration ratio of grape clusters (Example 9); type: in vivo; conditions: 10 g/L; 8 days after treatment
Tomato = conditions: dilution ratio 100 (10 g/L); 6 days after treatment
Mikan = conditions: dilution ratio 100 (10 g/L); 6 days after treatment
[4] = 10 g/L, 25° C., mass 100 g on date of application
[5] = 10 g/L, calculated from decrease in mass

Question: `O=P([O-])([O-])OP(=O)([O-])[O-].[K+].[K+].[K+].[K+]` [Tetrapotassium pyrophosphate, tetrapotassium pyrophosphate] was tested. Which “decrease of mass of fruit in 8 days (June 2 to June 10)” value ([1]; 10 g/L) did it give?
Answer: 19.1%

Question: And the “Sugar content (%) 8 days later, actually measured value” ([1]; 10 g/L, 25° C.)?
Answer: 21.5%

Question: What about the “Mass (g) 6 days later (Jun. 8)” value [1, 4] of the same compound?
Answer: 85.7 g

Question: And the “Mass (g) 8 days later (Jun. 10)” value [1, 4]?
Answer: 80.9 g

Question: What about the “Sugar content (%) 8 days later, calculated value” [1, 5] of the same compound?
Answer: 21.6%

Question: And the “Sugar content (%) on date of application (Jun. 2)” value ([1]; before application)?
Answer: 17.5%

Question: What about the “ratio of decrease in mass per day (comparison)” value ([2]; 10 g/L) of the same compound?
Answer: highest ratio of decrease in mass per day

Question: What about the “Sugar content (%) May 16” value ([2]; 10 g/L group, date of application) of the same compound?
Answer: 16.6%

Question: What about the “mass of fruit as % of the mass on the date of application” value ([2]; 10 g/L, 17 days later) of the same compound?
Answer: 57.3%

Question: And the “mass (g) of the fruit” value ([2]; 10 g/L, Jun. 2)?
Answer: 57.3 g

Question: What about the “mass (g) of the fruit” value ([2]; 10 g/L, May 19, 100 g on May 16) of the same compound?
Answer: 86.7 g

Question: And the “mass (g) of the fruit” value ([2]; 10 g/L, May 23)?
Answer: 78.9 g

Question: What about the “mass (g) of the fruit” value ([2]; 10 g/L, May 27) of the same compound?
Answer: 69.8 g

Question: What about the “mass (g) of the fruit” value ([2]; 10 g/L, May 30) of the same compound?
Answer: 63.8 g

Question: What about the “Sugar content (%) Jun. 2 Calculated value” [2, 5] of the same compound?
Answer: 29%

Question: What about the “Estimated transpiration ratio (%) Average” value [3] of the same compound?
Answer: 32%

Question: What about the “Estimated transpiration ratio (%) First” value [3] of the same compound?
Answer: 32%

Question: And the “Ratio (%) of decrease in body weight of fruit” value (Tomato)?
Answer: 13.8%

Question: What about the “Ratio (%) of decrease in body weight of fruit” value (Mikan) of the same compound?
Answer: 10.4%
